Molecules are shown by their SMILES. Values joined by “and” are separate entries in the source; they are usually repeats but may differ in a detail not shown here. Equal values may be shown once. Read-outs that look alike come from different tables or passages of the source.

Data set [1] relates to Caco-2 cell lysates. As to the kind of experiment: Biological stability in Caco-2 cell lysates. In kind it is in vitro ADME, human. The following applies: for stability in HBSS at pH 6 (blank control) / stability in Caco-2 cell lysates / stability in inactive Caco-2 cell lysates: individual compound 100 µM; for stability in HBSS at pH 6 (blank control): HBSS pH 6, up to 24 h; for stability in Caco-2 cell lysates: active cell lysates, within 24 h; for stability in inactive Caco-2 cell lysates: inactive (heated) cell lysates. On the procedure: Caco-2 cells were cultured in T75 flasks at a seeding density of 2 × 10^6 cells/flask for 12–15 days. The cell lysate was freshly prepared by washing the cells twice with ice-cold HBSS at pH 6 (12 mL). The cells were then collected by scraping and resuspending in ice-cold HBSS at pH 6 (7.5 mL/flask). The cell suspension was vortexed and sonicated in an ice water bath for 30 min to obtain the lysate, which was kept on ice until use, and its cellular protein concentration was determined using a BCA™ protein assay kit (Thermo Fisher Scientific, Rockford, IL, USA) with bovine serum albumin as a reference standard.
Many phenolic compounds were subject to sulfation and glucuronidation by Caco-2 cells at concentrations higher than 20 μM [16, 21, 43] and the metabolites of GA, MG and PGG could not be observed in Caco-2 transport experiment. Therefore, the concentration of the standard pure compounds used in this study was higher than that used in the chemical stability experiment. After preparing the cell lysate, the test compounds were prepared by dissolution in HBSS at pH 6 and then added to the lysates for a final concentration of 1.08 mg/mL protein to obtain final individual concentrations of 100 μM for GA, MG and PGG and 0.75 mg/mL for MSKE, which is equivalent to concentrations of 55.12 ± 4.57 µM GA, 7.56 ± 0.85 µM MG and 110.02 ± 17.52 µM PGG. The mixtures were then incubated in a water bath at 37 °C for 24 h, and samples (50 µL for standard compounds, and 200 µL for MSKE) were collected at 0, 4, 6 and 24 h. Each sample was then added to an ice-cold 50% methanol (150 µL for GA, MG and PGG, and 600 µL for MSKE) to stop the reaction, vortexed and centrifuged at 15,500 rpm for 15 min, and the supernatant was injected into the UPLC for analysis.
The chemical and biological stabilities of the phenolic compounds were expressed as the concentration of the analyte at different time points relative to the concentration of the same analyte at time zero multiplied by 100 (% recovery).

Data set [2] can be described thus: Caco-2 transepithelial transport experiment. Type of data set: in vitro ADME, human. The following applies: human. On the procedure: The transport experiment using Caco-2 monolayer was performed according to the criteria in our laboratory as previously reported with slight modification. Briefly, the cell monolayers were prepared by seeding 400,000 cells onto a polycarbonate insert, which has a surface area and pore size of 4.2 cm^2 and 3 μm, respectively (Nunc™, Thermo Fisher Scientific, Waltham, MA, USA). Cells were maintained in a humidified atmosphere at 37 °C (90% humidity and 5% CO2) and fed every other day. After 19 to 22 days post-seeding, the cell monolayers were used in the experiments. Before the experiment, the monolayers were quickly washed twice with pre-warmed HBSS at pH 7.4 (37 °C). The integrity of each monolayer was then verified by measuring the transepithelial electrical resistance (TEER) using a Millicell® ERS meter (Millipore, Bedford, MA, USA), and layers with TEER values less than 400 Ω/cm^2 relative to that of the blank insert were discarded. Then, the monolayers were incubated with the HBSS buffer at 37 °C for 1 h, and the incubation buffer was then aspirated. The test compounds were dissolved in HBSS at pH 6 to obtain final concentrations for the individual compounds (20 μM), mixture (20 μM) and MSKE (0.25 mg/mL), which were then loaded onto the A or B side (2.6 mL) as the donor side. A 2.6 mL aliquot of HBSS at pH 6 without the test compounds was loaded into the other side as the receiver side. After incubation at 37 °C, 0.6 mL of sample was collected from the receiver side at indicated times (60, 120, 180 and 240 min), and the same volume of receiver medium was replaced after each sampling. At the end of the experiment, the cells were washed twice with ice-cold HBSS at pH 6. The cells in each well were then collected and resuspended in 600 μL of HBSS at pH 6, and sonicated in an ice water bath at an output of 9 W for 30 min to obtain the cell lysates. The lysate was divided into the following aliquots: (1) 20 μL for quantitative protein assessment using a BCA™ protein assay kit and (2) 580 μL for quantitative test compounds. The samples collected from the transport study were stored at −20 °C until the UPLC or LC–MS/MS analysis. The experiments were performed in triplicate.
The apparent permeability coefficient (Papp, cm/s) of each compound was calculated according to the following equation (Equation (1)): (1) Papp= dQ/dt×1/AC0 where dQ/dt is the compound permeation rate (nmol/s), A denotes the membrane surface area, and C0 is the initial concentration on the donor side (µM). The efflux ratio was calculated according to the following equation (Equation (2)): (2) Efflux ratio= Papp BA(mean)/Papp AB(mean) where Papp BA (mean) and Papp AB (mean) are the average apparent permeability coefficients of each compound from side B to side A, and from side A to side B, respectively.
(Passage across Caco-2 layers is used to estimate intestinal permeability.)

For data set [3] the following is noted: rats, i.p., mixture of MG and PGG 20 mg/kg each, cited from earlier work.
The conditions of data set [4]: cited from earlier work.
The conditions of data set [5]: human, in vivo, po; cited from earlier work.

By Papp A→B is commonly meant how fast a substance crosses the layer from the apical side. The Papp B→A is how fast a substance crosses the layer from the basolateral side. The Cmax is the maximum level reached in the sampled fluid or tissue. Usually Tmax stands for the time at which the peak concentration occurs. `COC(=O)c1cc(O)c(O)c(O)c1` [MG, methyl gallate]: the “relative recoveries after incubation with Caco-2 cell lysates” value in data set [1] (as principle in MSKE 0.75 mg/mL, 24 h, relative to HBSS) is listed as “decreased relative recoveries”. In data set [1], the “stability in HBSS at pH 6 (blank control)” value is recorded as “stable” and the “stability in Caco-2 cell lysates” value is listed as “degraded”. In addition, the “stability in inactive Caco-2 cell lysates” value in data set [1] (24 h) was “stable”. Besides, in data set [2] (Caco-2, pH 6, as principle in MSKE 0.25 mg/mL, HBSS pH 6, read-out: Papp A to B), the apparent permeability from apical to basolateral (Papp A→B) at 240 min came out at 17.6 ± 1.54 ×10⁻⁶ cm/s. Besides, in data set [2] (Caco-2, pH 6, as principle in MSKE 0.25 mg/mL, HBSS pH 6, read-out: Papp B to A), the apparent permeability from basolateral to apical (Papp B→A) at 240 min was 11.3 ± 0.31 ×10⁻⁶ cm/s. Also, the efflux ratio at 240 min in data set [2] (Caco-2, pH 6, as principle in MSKE 0.25 mg/mL, Papp BA/Papp AB, read-out: Efflux Ratios) amounted to 0.66. Further, the efflux ratio at 240 min, 20 µM in data set [2] (Caco-2, pH 6, in mixture 20 μM, Papp BA/Papp AB, read-out: Efflux Ratios) came out at 0.51. Moreover, in data set [2] (Caco-2, pH 6, in mixture of GA, MG, PGG 20 μM, HBSS pH 6), the Papp A→B at 240 min, 20 µM was found to be 12.5 ± 0.63 ×10⁻⁶ cm/s. The Papp B→A at 240 min, 20 µM in data set [2] (Caco-2, pH 6, in mixture of GA, MG, PGG 20 μM, HBSS pH 6, read-out: Papp B to A) was determined as 6.33 ± 0.57 ×10⁻⁶ cm/s. The Papp A→B at 240 min, 20 µM in data set [2] (Caco-2, pH 6, individual compound 20 μM, HBSS pH 6) came out at 13.6 ± 0.4 ×10⁻⁶ cm/s. Besides, the Papp B→A at 240 min, 20 µM in data set [2] (Caco-2, pH 6, individual compound 20 μM, HBSS pH 6, read-out: Papp B to A) was 7.02 ± 1.11 ×10⁻⁶ cm/s. Moreover, the efflux ratio at 240 min, 20 µM in data set [2] (Caco-2, pH 6, individual compound 20 μM, Papp BA/Papp AB, read-out: Efflux Ratios) turned out to be 0.52. Moreover, in data set [3] (blood), the Cmax is 35 µM and 34.7 µM; the Tmax is given as 0.85 ± 0.70 h. Also, in data set [3], the CL was 2665.2 ± 1268 mL/min/kg, the Ke was 0.056 ± 0.032 h⁻¹, the MRTlast was 8.71 ± 2.53 h and the Vd was 530.95 ± 247.54 L/kg. For the same compound, in data set [3], the t1/2 is given as 17.50 ± 12.25 h.
`O=C(O)c1cc(O)c(O)c(O)c1` [GA, Gallic acid]: in data set [4] (rat, in vivo, po, 100 umol/kg), the Cmax was 0.71 µM and the “elimination t1/2” value is 0.4 h. Also, the Tmax entry in data set [4] (rats, p.o., GA as pure compound or component of rhubarb and grape seed extract, plasma) was “approximately 60 min”. Also, in data set [1], the “stability in HBSS at pH 6 (blank control)” value is recorded as “stable” and the “stability in Caco-2 cell lysates” value is given as “degraded”. The “stability in inactive Caco-2 cell lysates” value in data set [1] (24 h) was “stable”. The t1/2 in data set [5] is reported as around 1 h. For the same compound, the Papp A→B at 240 min in data set [2] (Caco-2, pH 6, Papp A to B) came out at 1.46 ± 0.21 ×10⁻⁶ cm/s. In data set [2] (Caco-2, pH 6, Papp B to A), this compound had a Papp B→A at 240 min of 8.04 ± 0.43 ×10⁻⁶ cm/s and a Papp B→A at 240 min, 20 µM of 1.02 ± 0.29 ×10⁻⁶ cm/s.

The values are drawn from PMC6332320, “Factors Influencing Oral Bioavailability of Thai Mango Seed Kernel Extract and Its Key Phenolic Principles” (Molecules, 2015).
